Data on 23 molecules can be found in patent publication US20080234332A1, “RAF KINASE INHIBITORS CONTAINING A ZINC BINDING MOIETY” (priority 2007, published 2008).

Bounds are passed on as bounds.

In general, IC50 refers to the point on the concentration scale where inhibition reaches its midpoint.

Common to all, as to format: biochemical
The test system of one test is HDAC. The experiment in a line: HDAC fluorimetric assay kit (HeLa nuclear extract). Particulars: read-out: HDAC IC50 grade. The method, then: HDAC inhibitors were screened using an HDAC fluorimetric assay kit (AK-500, Biomol, Plymouth Meeting, Pa.). […] Each assay was setup as follows: Defrosted all kit components and kept on ice until use. Diluted HeLa nuclear extract 1:29 in assay buffer (50 mM Tris/Cl, pH 8.0, 137 mM NaCl, 2.7 mM KCl, 1 mM MgCl2). Prepared dilutions of Trichostatin A (TSA, positive control) and tested compounds in assay buffer (5× of final concentration). Diluted Fluor de LysTM Substrate in assay buffer to 100 uM (50 fold=2× final). Diluted Fluor de LysTM developer concentrate 20-fold (e.g. 50 μl plus 950 μl assay buffer) in cold assay buffer. Second, diluted the 0.2 mM Trichostatin A 100-fold in the 1× Developer (e.g. 10 μl in 1 ml; final Trichostatin A concentration in the 1× Developer=2 μM; final concentration after addition to HDAC/Substrate reaction=1 μM). Added assay buffer, diluted trichostatin A or test inhibitor to appropriate wells of the microtiter plate. Added diluted HeLa extract or other HDAC sample to all wells except for negative controls. Allowed diluted Fluor de LysTM Substrate and the samples in the microtiter plate to equilibrate to assay temperature (e.g. 25 or 37° C. Initiated HDAC reactions by adding diluted substrate (25 μl) to each well and mixing thoroughly. Allowed HDAC reactions to proceed for 1 hour and then stopped them by addition of Fluor de LysTM Developer (50 μl). Incubated plate at room temperature (25° C.) for 10-15 min. Read samples in a microtiter-plate reading fluorimeter capable of excitation at a wavelength in the range 350-380 nm and detection of emitted light in the range 440-460 nm.
(§1) The following TABLE B lists compounds representative of the invention and their activity in HDAC, VEGFR2 and RAF assays.

Another test concerns the target T1, VEGFR2 (Homo sapiens, UniProt P35968).
T1 construct: GST (N); His6 (N); Thrombin cleavage site (N); purchased Cell Signaling Technologies; host or cells: baculovirus expression system
The experiment in a line: HTScan VEGFR2 Kinase Assay (DELFIA). To be noted: 200 μM ATP; read-out: VEGFR2 IC50 grade. The method, then:
The ability of compounds to inhibit VEGFR2 kinase activity was assayed using HTScan™ VEGFR2 Kinase Assay Kits (Cell Signaling Technologies, Danvers, Mass.). […] The protein was purified by one-step affinity chromatography using glutathione-agarose.
Immediately transfer enzyme from −80° C. to ice. Allowed enzyme to thaw on ice. […] Returned immediately to ice. […] Incubated reaction plate at room temperature for 30 minutes. […] Added 100 μl/well primary antibody. Incubated at room temperature for 60 minutes. […] Added 100 μl/well diluted antibody. Incubated at room temperature for 30 minutes. […] Incubated at room temperature for 5 minutes.
as §1

Another test has as its target PDGFRβ (Homo sapiens, UniProt P09619). The experiment in a line: PDGFRβ kinase inhibition (Table B). Particulars: read-out: PDGFRβ IC50 grade.
For the next test, the target named is cKit (Homo sapiens, UniProt P10721). The experiment in a line: cKit kinase inhibition (Table B). Particulars: read-out: cKit IC50 grade.
cKit, sequence (P10721 26-976): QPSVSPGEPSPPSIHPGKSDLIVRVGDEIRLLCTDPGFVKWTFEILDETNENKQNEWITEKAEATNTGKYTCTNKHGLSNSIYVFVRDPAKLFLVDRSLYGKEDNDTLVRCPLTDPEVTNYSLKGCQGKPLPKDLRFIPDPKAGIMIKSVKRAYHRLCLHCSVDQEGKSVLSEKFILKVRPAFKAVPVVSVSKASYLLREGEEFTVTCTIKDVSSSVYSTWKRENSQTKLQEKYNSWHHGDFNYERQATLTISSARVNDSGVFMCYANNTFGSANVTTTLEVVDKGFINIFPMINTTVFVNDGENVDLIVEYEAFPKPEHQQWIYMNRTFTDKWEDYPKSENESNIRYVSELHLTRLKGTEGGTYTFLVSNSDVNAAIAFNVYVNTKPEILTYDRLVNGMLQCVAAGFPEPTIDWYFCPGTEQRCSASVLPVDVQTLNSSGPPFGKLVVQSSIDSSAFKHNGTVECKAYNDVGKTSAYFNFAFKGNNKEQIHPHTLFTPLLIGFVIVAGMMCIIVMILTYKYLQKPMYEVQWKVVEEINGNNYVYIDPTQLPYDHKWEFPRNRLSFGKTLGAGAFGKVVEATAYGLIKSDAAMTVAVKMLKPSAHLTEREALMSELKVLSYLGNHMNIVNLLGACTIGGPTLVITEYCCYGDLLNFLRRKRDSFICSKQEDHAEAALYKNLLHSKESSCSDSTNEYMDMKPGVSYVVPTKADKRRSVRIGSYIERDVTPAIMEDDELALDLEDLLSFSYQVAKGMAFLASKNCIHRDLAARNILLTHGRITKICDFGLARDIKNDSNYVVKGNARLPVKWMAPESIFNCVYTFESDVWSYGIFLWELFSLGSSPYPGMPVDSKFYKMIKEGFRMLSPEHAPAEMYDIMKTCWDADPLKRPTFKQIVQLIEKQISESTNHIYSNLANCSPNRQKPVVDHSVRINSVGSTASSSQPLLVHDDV
A further test deals with C-Raf (Homo sapiens, UniProt P04049). The experiment in a line: Raf kinase assay (C-Raf kit, MEK-1 substrate, dot blot). To be noted: 250 μM ATP; read-out: C-Raf IC50 grade. How it is done:
The Raf kinase assay was performed by following the protocol of Raf kinase assay kit (B-Raf, Upstate, catalog# 17-359; C-Raf, Upstate, catalog# 17-360) with modifications. Briefly, assay buffer, ATP, substrate and Raf kinase were mixed in a 96 well assay plate. The final kinase assay mixture contained 20 mM MOPS, pH7.2, 25 mM β-glycerol phosphate, 5 mM EGTA, 1 mM sodium orthovanadate, 1 mM DTT, 250 μM ATP and 37.5 mM magnesium chloride, 0.1 μg/well of Raf kinase, and 1 μg/well of MEK-1 substrate protein. Assay samples were incubated for 30 min at room temperature. The kinase reaction was stopped by adding EDTA, pH8 to a final concentration of 25 mM. A 10 μl of the reaction sample was spotted onto nitrocellulose filter and dot blot was performed by adding 1 μg/ml of anti-phospho-MEK-1 antibody in the blocking solution (Licor Bioscience, catalogue # 927-40000). The nitrocellulose filter was subsequently incubated with secondary IRDye 800CW goat anti-rabbit antibody (Licor Bioscience, catalogue # 926-32211) before reading the signal on an Odyssey imager (Licor Bioscience).
as §1

PDGFRβ, sequence (P09619 33-1106, species assumed): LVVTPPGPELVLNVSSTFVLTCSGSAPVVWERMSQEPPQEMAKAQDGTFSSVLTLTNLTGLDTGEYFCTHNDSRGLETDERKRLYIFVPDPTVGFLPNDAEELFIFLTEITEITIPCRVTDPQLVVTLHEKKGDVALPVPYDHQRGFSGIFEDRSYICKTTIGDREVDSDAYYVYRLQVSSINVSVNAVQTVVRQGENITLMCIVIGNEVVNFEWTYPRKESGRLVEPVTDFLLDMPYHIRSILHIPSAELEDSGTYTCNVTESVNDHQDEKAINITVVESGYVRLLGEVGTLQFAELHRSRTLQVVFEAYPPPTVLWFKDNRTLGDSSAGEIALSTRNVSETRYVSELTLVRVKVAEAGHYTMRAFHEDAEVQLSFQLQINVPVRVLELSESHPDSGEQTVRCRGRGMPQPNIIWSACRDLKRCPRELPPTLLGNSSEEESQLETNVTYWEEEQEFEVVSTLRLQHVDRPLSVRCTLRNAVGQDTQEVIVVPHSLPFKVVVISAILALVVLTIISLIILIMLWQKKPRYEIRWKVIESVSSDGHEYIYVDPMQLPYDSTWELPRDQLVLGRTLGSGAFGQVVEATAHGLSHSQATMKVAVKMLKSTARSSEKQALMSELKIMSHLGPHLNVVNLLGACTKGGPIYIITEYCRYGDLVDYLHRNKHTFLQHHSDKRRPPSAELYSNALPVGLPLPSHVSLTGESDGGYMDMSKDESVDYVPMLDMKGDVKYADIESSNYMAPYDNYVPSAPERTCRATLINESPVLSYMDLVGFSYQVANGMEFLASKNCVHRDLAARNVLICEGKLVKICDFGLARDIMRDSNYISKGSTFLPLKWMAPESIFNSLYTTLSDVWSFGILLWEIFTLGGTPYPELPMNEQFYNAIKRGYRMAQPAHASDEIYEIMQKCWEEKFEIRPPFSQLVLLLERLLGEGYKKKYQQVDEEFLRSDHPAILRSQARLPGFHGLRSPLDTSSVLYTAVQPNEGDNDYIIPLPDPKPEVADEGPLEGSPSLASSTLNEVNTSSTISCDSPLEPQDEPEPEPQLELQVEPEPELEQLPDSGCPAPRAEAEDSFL
T1 sequence (P35968 805-1356): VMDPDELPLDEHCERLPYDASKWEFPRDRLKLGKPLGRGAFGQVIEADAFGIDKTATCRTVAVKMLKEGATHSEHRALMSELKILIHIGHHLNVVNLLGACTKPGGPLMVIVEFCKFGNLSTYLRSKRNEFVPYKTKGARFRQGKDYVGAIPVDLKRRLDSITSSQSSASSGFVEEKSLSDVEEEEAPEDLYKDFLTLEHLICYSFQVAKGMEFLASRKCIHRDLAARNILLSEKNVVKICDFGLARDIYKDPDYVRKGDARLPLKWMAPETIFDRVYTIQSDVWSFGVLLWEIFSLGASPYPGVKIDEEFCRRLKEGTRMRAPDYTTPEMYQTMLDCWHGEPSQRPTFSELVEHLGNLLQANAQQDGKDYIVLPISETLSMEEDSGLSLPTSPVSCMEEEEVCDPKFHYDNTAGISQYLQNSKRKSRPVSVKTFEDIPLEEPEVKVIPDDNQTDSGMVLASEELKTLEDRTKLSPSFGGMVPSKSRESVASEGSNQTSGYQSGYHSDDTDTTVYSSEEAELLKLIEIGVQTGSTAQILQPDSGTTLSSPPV
C-Raf, sequence (P04049 whole entry Y340D/Y341D, form open): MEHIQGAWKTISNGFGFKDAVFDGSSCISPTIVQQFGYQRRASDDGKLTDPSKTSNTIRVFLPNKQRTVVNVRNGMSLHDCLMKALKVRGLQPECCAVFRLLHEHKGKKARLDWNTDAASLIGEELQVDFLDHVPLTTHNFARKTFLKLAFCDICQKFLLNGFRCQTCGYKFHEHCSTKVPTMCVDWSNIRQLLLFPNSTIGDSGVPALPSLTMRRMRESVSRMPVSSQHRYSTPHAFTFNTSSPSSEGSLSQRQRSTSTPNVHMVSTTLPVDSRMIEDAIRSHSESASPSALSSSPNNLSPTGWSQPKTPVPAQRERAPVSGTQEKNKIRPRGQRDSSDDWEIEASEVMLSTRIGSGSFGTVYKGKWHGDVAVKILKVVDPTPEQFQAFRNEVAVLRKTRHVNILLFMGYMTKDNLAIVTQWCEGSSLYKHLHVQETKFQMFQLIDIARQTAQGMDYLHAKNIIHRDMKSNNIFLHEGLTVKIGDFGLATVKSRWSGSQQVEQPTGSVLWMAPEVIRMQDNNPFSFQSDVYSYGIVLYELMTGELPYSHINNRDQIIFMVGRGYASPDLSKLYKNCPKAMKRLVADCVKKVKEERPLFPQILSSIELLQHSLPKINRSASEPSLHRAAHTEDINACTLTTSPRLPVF

`C[C@@H](NC(=O)c1cc(Oc2ccc(NC(=O)Nc3ccc(Cl)c(C(F)(F)F)c3)cc2)ccn1)C(=O)NO` [Compound 1, (R)-4-(4-(3-(4-chloro-3-(trifluoromethyl)phenyl)ureido)phenoxy)-N-(1-(hydroxyamino)-1-oxopropan-2-yl)picolinamide]: in the test with HDAC, the IC50 was in the range of 1000 to 10000 nM.

For `O=C(CCCNC(=O)c1cc(Oc2ccc(NC(=O)Nc3ccc(Cl)c(C(F)(F)F)c3)cc2)ccn1)NO` [Compound 3, 4-(4-(3-(4-chloro-3-(trifluoromethyl)phenyl)ureido)phenoxy)-N-(4-(hydroxyamino)-4-oxobutyl)picolinamide], in the test on HDAC, the IC50 lay within 1000 to 10000 nM.

For the molecule `O=C(CCCCCCNC(=O)c1cc(Oc2ccc(NC(=O)Nc3ccc(Cl)c(C(F)(F)F)c3)cc2)ccn1)NO` [Compound 6, 4-(4-(3-(4-chloro-3-(trifluoromethyl)phenyl)ureido)phenoxy)-N-(7-(hydroxyamino)-7-oxoheptyl)picolinamide], in the test on HDAC, the IC50 lay within 100 to 1000 nM.

As to `O=C(CCCCCCCNC(=O)c1cc(Oc2ccc(NC(=O)Nc3ccc(Cl)c(C(F)(F)F)c3)cc2)ccn1)NO` [Compound 7, 4-(4-(3-(4-chloro-3-(trifluoromethyl)phenyl)ureido)phenoxy)-N-(8-(hydroxyamino)-8-oxooctyl)picolinamide], the IC50 in the test on HDAC is 1000 to 10000 nM; at VEGFR2, 100 to 1000 nM; on PDGFRβ, 100 to 1000 nM; on cKit it was under 100 nM.

`O=C(CCCC(=O)Nc1cc(Oc2ccc(NC(=O)Nc3ccc(Cl)c(C(F)(F)F)c3)cc2)ccn1)NO` [Compound 9, 1-(4-chloro-3-(trifluoromethyl)phenyl)-3-(4-(2-(5-(hydroxyamino)-5-oxopentanamido)pyridin-4-yloxy)phenyl)urea]: the IC50 was 100 to 1000 nM in the test on HDAC and under 100 nM at VEGFR2.

In the case of `O=C(CCCCC(=O)Nc1cc(Oc2ccc(NC(=O)Nc3ccc(Cl)c(C(F)(F)F)c3)cc2)ccn1)NO` [Compound 10, 1-(4-chloro-3-(trifluoromethyl)phenyl)-3-(4-(2-(6-(hydroxyamino)-6-oxohexanamido)pyridin-4-yloxy)phenyl)urea], the IC50 in the test with HDAC is 1000 to 10000 nM.

As to `O=C(CCCCCCC(=O)Nc1cc(Oc2ccc(NC(=O)Nc3ccc(Cl)c(C(F)(F)F)c3)cc2)ccn1)NO` [Compound 12, 1-(4-chloro-3-(trifluoromethyl)phenyl)-3-(4-(2-(8-(hydroxyamino)-8-oxooctanamido)pyridin-4-yloxy)phenyl)urea], the IC50 is 100 to 1000 nM with HDAC; under 100 nM at C-Raf; under 100 nM at VEGFR2; under 100 nM at PDGFRβ; under 100 nM at cKit.

Turning to `O=C(CCCCCNCc1cc(Oc2ccc(NC(=O)Nc3ccc(Cl)c(C(F)(F)F)c3)cc2)ccn1)NO` [Compound 16, 6-((4-(4-(3-(4-chloro-3-(trifluoromethyl)phenyl)ureido)phenoxy)pyridin-2-yl)methylamino)-N-hydroxyhexanamide], the IC50 in the test with HDAC was in the range of 100 to 1000 nM.

For `O=C(CCCCCCNCc1cc(Oc2ccc(NC(=O)Nc3ccc(Cl)c(C(F)(F)F)c3)cc2)ccn1)NO` [Compound 17, 7-((4-(4-(3-(4-chloro-3-(trifluoromethyl)phenyl)ureido)phenoxy)pyridin-2-yl)methylamino)-N-hydroxyheptanamide], the IC50 with HDAC and on VEGFR2 was 100 to 1000 nM each time.

In the case of `O=C(CCCCCCCNCc1cc(Oc2ccc(NC(=O)Nc3ccc(Cl)c(C(F)(F)F)c3)cc2)ccn1)NO` [Compound 18, 8-((4-(4-(3-(4-Chloro-3-(trifluoromethyl)phenyl)ureido)phenoxy)pyridin-2-yl)methylamino)-N-hydroxyoctanamide], the IC50 with HDAC and at VEGFR2 was 100 to 1000 nM in each case.

Turning to `O=C(CCC(=O)NCc1cc(Oc2ccc(NC(=O)Nc3ccc(Cl)c(C(F)(F)F)c3)cc2)ccn1)NO` [Compound 19, N^1-((4-(4-(3-(4-chloro-3-(trifluoromethyl)phenyl)ureido)phenoxy)pyridin-2-yl)methyl)-N^4-hydroxysuccinamide], the IC50 in the test on HDAC was in the range of 100 to 1000 nM.

For the molecule `O=C(CCCC(=O)NCc1cc(Oc2ccc(NC(=O)Nc3ccc(Cl)c(C(F)(F)F)c3)cc2)ccn1)NO` [Compound 20, N^1-((4-(4-(3-(4-chloro-3(trifluoromethyl)phenyl)ureido)phenoxy)pyridin-2-yl)methyl)-N^5-hydroxyglutaramide], the IC50 was 100 to 1000 nM in the test on HDAC and under 100 nM at VEGFR2.

For `O=C(CCCCC(=O)NCc1cc(Oc2ccc(NC(=O)Nc3ccc(Cl)c(C(F)(F)F)c3)cc2)ccn1)NO` [Compound 21, N^1-((4-(4-(3-(4-chloro-3(trifluoromethyl)phenyl)ureido)phenoxy)pyridin-2-yl)methyl)-N^6-hydroxyadipamide], the IC50 in the test on HDAC is 100 to 1000 nM; on VEGFR2, under 100 nM; at PDGFRβ, 100 to 1000 nM; on cKit it was under 100 nM.

In the case of `O=C(CCCCCCC(=O)NCc1cc(Oc2ccc(NC(=O)Nc3ccc(Cl)c(C(F)(F)F)c3)cc2)ccn1)NO` [Compound 23, N^1-((4-(4-(3-(4-chloro-3(trifluoromethyl)phenyl)ureido)phenoxy)pyridin-2-yl)methyl)-N^8-hydroxyoctanediamide], the IC50 in the test with HDAC was 100 to 1000 nM; at VEGFR2 it was under 100 nM; at PDGFRβ, 100 to 1000 nM; at cKit, under 100 nM.

Regarding `O=C(CCCn1ccc(Oc2ccc(NC(=O)Nc3ccc(Cl)c(C(F)(F)F)c3)cc2)cc1=O)NO` [Compound 25], the IC50 in the test on HDAC fell in the range of 1000 to 10000 nM.

Regarding `O=C(CCCCn1ccc(Oc2ccc(NC(=O)Nc3ccc(Cl)c(C(F)(F)F)c3)cc2)cc1=O)NO` [Compound 26], the IC50 with HDAC was 1000 to 10000 nM.

On to `O=C(CCCCCn1ccc(Oc2ccc(NC(=O)Nc3ccc(Cl)c(C(F)(F)F)c3)cc2)cc1=O)NO` [Compound 27], for which, in the test with HDAC, the IC50 lay within 100 to 1000 nM.

For `O=C(CCCCCCn1ccc(Oc2ccc(NC(=O)Nc3ccc(Cl)c(C(F)(F)F)c3)cc2)cc1=O)NO` [Compound 28], the IC50 in the test on HDAC lay within 100 to 1000 nM.

Consider `O=C(CCCOc1cc(Oc2ccc(NC(=O)Nc3ccc(Cl)c(C(F)(F)F)c3)cc2)ccn1)NO` [Compound 31], for which the IC50 in the test with HDAC was 1000 to 10000 nM.

As for `O=C(CCCCOc1cc(Oc2ccc(NC(=O)Nc3ccc(Cl)c(C(F)(F)F)c3)cc2)ccn1)NO` [Compound 32], the IC50 in the test with HDAC was 100 to 1000 nM; at VEGFR2, under 100 nM.

Take `O=C(CCCCCOc1cc(Oc2ccc(NC(=O)Nc3ccc(Cl)c(C(F)(F)F)c3)cc2)ccn1)NO` [Compound 33]: the IC50 in the test on HDAC was in the range of 1000 to 10000 nM.

Consider `O=C(CCCCCCOc1cc(Oc2ccc(NC(=O)Nc3ccc(Cl)c(C(F)(F)F)c3)cc2)ccn1)NO` [Compound 34], for which the 50% inhibitory concentration (IC50) in the test on HDAC lay in the range of 100 to 1000 nM.

As to `O=C(Nc1ccc(Oc2ccnc(C(=O)NO)c2)cc1)Nc1ccc(Cl)c(C(F)(F)F)c1` [Compound 36, 4-(4-(3-(4-chloro-3-(trifluoromethyl)phenyl)ureido)phenoxy)-N-hydroxypicolinamide], the IC50 with HDAC is over 10000 nM; at VEGFR2, 1000 to 10000 nM.
